The text below walks through data of patent US6506800B2, “1,4 diaryl-2,3-difluoro-2-butene insecticidal and acaricidal agents” (BASF Aktiengesellschaft, priority 2000, dated 2003).

What all share (format): in vivo
Test [1] has as its system Tetranychus urticae (OP-resistant strain), 2-spotted spider mite (TSM). Kind of test: 2-spotted spider mite (TSM) plant dip test. Also on record: key: 0 = no effect; 1 = 10-25% kill; 2 = 26-35% kill; 3 = 36-45% kill; 4 = 46-55% kill; 5 = 56-65% kill; 6 = 66-75% kill; 7 = 76-85% kill; 8 = 86-99% kill; 9 = 100% kill. Particulars: dip of infested lima bean plants, 2 days, kill rating 0-9. As for the experimental part: (§1) Test solutions are prepared by dissolving the test compound in a 35% acetone in water mixture to give a concentration of 10000 ppm. Subsequent dilutions are made with water as needed.
Tetranychus urticae (OP-resistant strain), 2-spotted spider mite (TSM)
Sieva lima bean plants with primary leaves expanded to 7-8 cm are selected and cut back to one plant per pot. A small piece is cut from an infested leaf taken from the main colony and placed on each leaf of the test plants. This is done about 2 hours before treatment to allow the mites to move over to the test plant to lay eggs. By the size of the cut, infested leaf is varied to obtain about 100 mites per leaf. At the time of test treatment, the piece of leaf used to transfer the mites is removed and discarded. The newly-infested plants are dipped in the test solution for 3 seconds with agitation and set in the hood to dry. After 2 days, one leaf is removed and mortality counts are made.

In test [2] the test system is Diabrotica virgifera virgifera Leconte, 3rd instar western corn rootworm (WCR). Description: Western corn rootworm (WCR) soil test. The conditions noted are these: 1.25 mg active ingredient per jar in soil (approx. 50 kg/ha), 5 days, kill rating 0-9. As for the experimental part:
Diabrotica virgifera virgifera Leconte, 3rd instar western corn rootworm (WCR) One ccm of fine talc is placed in a 30 ml wide-mouth screw-top glass jar. One ml of the appropriate acetone test solution is pipetted onto the talc so as to provide 1.25 mg of active ingredient per jar. The jars are set under a gentle air flow until the acetone is evaporated. The dried talc is loosened, 1 ccm of millet seed is added to serve as food for the insects and 25 ml of moist soil is added to each jar. The jar is capped and the contents thoroughly mixed mechanically. Following this, ten 3rd instar rootworms are added to each jar and the jars are loosely capped to allow air exchange for the larvae. The treatments are held for 5 days when mortality counts are made. Missing larvae are presumed dead, since they decompose rapidly and cannot be found. The concentrations of active ingredient used in this test correspond approximately to 50 kg/ha.

The test system of test [3] is Aphis fabae, mixed instar, bean aphid (BA). Kind of test: Bean aphid (BA) spray test on nasturtium. The arrangement: key: 0 = no effect; 1 = 10-25% kill; 2 = 26-35% kill; 3 = 36-45% kill; 4 = 46-55% kill; 5 = 56-65% kill; 6 = 66-75% kill; 7 = 76-85% kill; 8 = 86-99% kill; 9 = 100% kill. Particulars: spray on infested nasturtium plants, 2 days, kill rating 0-9. On the procedure:
Test solutions are prepared by dissolving the test compound in a 35% acetone in water mixture to give a concentration of 10000 ppm. Subsequent dilutions are made with water as needed. Aphis fabae, mixed instar, bean aphid (BA) Pots containing single nasturtium plants (Tropaeolum sp.) about 5 cm tall are infested with about 100-200 aphids one day before the test. Each pot is sprayed with the test solution for 2 revolutions of a 4 rounds per minute (rpm) turntable in a hood. The spray is directed to give complete coverage of the plants and aphids. The sprayed pots are set on their sides on white trays and held for 2 days, following which mortality estimates are made.

Test [4] deals with Heliothis virenscens, 3rd instar tobacco budworm (TBW). Description: Tobacco budworm (TBW) cotton cotyledon dip test. Also on record: key: 0 = no effect; 1 = 10-25% kill; 2 = 26-35% kill; 3 = 36-45% kill; 4 = 46-55% kill; 5 = 56-65% kill; 6 = 66-75% kill; 7 = 76-85% kill; 8 = 86-99% kill; 9 = 100% kill. The conditions noted are these: 3 days, kill rating 0-9. As for the experimental part:
as §1
Heliothis virenscens, 3rd instar tobacco budworm (TBW)
Cotton cotyledons are dipped in the test solution and allowed to dry in a hood. When dry, each is cut into quarters and ten sections are placed individually in 30 ml plastic medicine cups containing a 5 to 7 mm long piece of damp dental wick. One 3rd instar caterpillar is added to each cup and a cardboard lid placed on the cup. Treatments are maintained for 3 days before mortality counts and estimates of reduction in feeding damage are made.

The subject of test [5] is Spodoptera eridania, 3rd instar larvae, southern armyworm (SAW). Description: Southern armyworm (SAW) leaf-dip test. Particulars: lima bean leaf dip, after 5 days, kill rating 0-9. On the procedure:
as §1
Spodoptera eridania, 3rd instar larvae, southern armyworm (SAW)
A Sieva lima bean leaf expanded to 7-8 cm in length is dipped in the test solution with agitation for 3 seconds and allowed to dry in a hood. The leaf is then placed in a 100×10 mm petri dish containing a damp filter paper on the bottom and ten 3rd instar caterpillars. After 5 days, observations are made of mortality, reduced feeding, or any interference with normal molting.

The structures appear in SMILES notation.

For the compound `COCCC(/C(F)=C(\F)Cc1ccc(F)c(Oc2ccccc2)c1)c1ccc(Cl)cc1` (centres unmarked) [Compound 4, 4-[(2E)-4-(4-chlorophenyl)-2,3-difluoro-6-methoxy-2-hexenyl]-1-fluoro-2-phenoxybenzene], the “TSM (100 ppm) rating” value in test [1] stood at 0. Further, the “WCR (50 ppm) rating” value in test [2] is recorded as 9 (9 = 100% kill). Besides, the “BA (100 ppm) rating” value in test [3] is recorded as 0. The “TBW (100 ppm) rating” value in test [4] is listed as 9 (9 = 100% kill). Besides, the “SAW (100 ppm) rating” value in test [5] is on record as 9 (9 = 100% kill).
Consider `COCCC(/C(F)=C(\F)Cc1cccc(Oc2ccccc2)c1)c1ccc(Cl)cc1` (centres unmarked) [Compound 1, 1-[(2E)-4-(4-chlorophenyl)-2,3-difluoro-6-methoxy-2-hexenyl]-3-phenoxybenzene], for which, in test [1], the “TSM (100 ppm) rating” value is given as 0. Moreover, in test [2], the “WCR (50 ppm) rating” value was 8 (8 = 86-99% kill). Further, the “BA (100 ppm) rating” value in test [3] is on record as 2 (2 = 26-35% kill). Further, the “TBW (100 ppm) rating” value in test [4] amounted to 0. The “SAW (100 ppm) rating” value in test [5] is on record as 9 (9 = 100% kill).
On to `C=CCC(/C(F)=C(\F)Cc1cccc(Oc2ccccc2)c1)c1ccc(Cl)cc1` (centres unmarked) [Compound 2, 1[(2E)-4-(4-chlorophenyl)-2,3-difluoro-2,6-heptadienyl]-3-phenoxybenzene], for which, in test [1], the “TSM (100 ppm) rating” value turned out to be 0. Further, the “WCR (50 ppm) rating” value in test [2] is 9 (9 = 100% kill). The “BA (100 ppm) rating” value in test [3] is 9 (9 = 100% kill). Moreover, the “TBW (100 ppm) rating” value in test [4] was 9 (9 = 100% kill). Also, the “SAW (100 ppm) rating” value in test [5] was 9 (9 = 100% kill).
Turning to `C=CC(/C(F)=C(\F)Cc1cccc(Oc2ccccc2)c1)c1ccc(Cl)cc1` (centres unmarked) [Compound 3, 1-[(2E)-4-(4-chlorophenyl)-2,3-difluoro-2,5-hexadienyl]-3-phenoxybenzene], the “TSM (100 ppm) rating” value in test [1] is on record as 0. In test [2], the “WCR (50 ppm) rating” value is reported as 9 (9 = 100% kill). Also, the “BA (100 ppm) rating” value in test [3] was 9 (9 = 100% kill). Besides, the “TBW (100 ppm) rating” value in test [4] is reported as 9 (9 = 100% kill). The “SAW (100 ppm) rating” value in test [5] was 9 (9 = 100% kill).
